# Measurements as given in patent US7081247B2, “Composition and method for inhibiting polar capsule discharge and protecting a subject from nematocyst sting” (priority 2002, dated 2006).
# Columns and labels:
# [1] = test system: isolated nematocyst capsules; settings: 50 mM CaCl2; cited from earlier work
# [2] = test system: Aiptasia Mutabilis acontial filament nematocysts; settings: 2 mM in seawater medium; cited from earlier work
# [3] = test system: nematocyte batteries in the oral arms of Pelagia nociluca; settings: applied through a gelatin probe; cited from earlier work
# [4] = test system: jellyfish Rhopilema nomadica nematocysts; assay: Inhibition of nematocyst discharge into human skin samples (immunohistochemical analysis); assay type: cell-based; settings: human skin sections, 10 seconds contact with jellyfish tentacles
# Method: Normal human skin was obtained from neonatal elective circumcision. The skin was immediately placed into sterile phosphate buffered saline (PBS) containing antibiotic/antimycotic. The tissue was frozen and embedded in Tissue-TekTM. It was then sectioned into 50 μm sections using a cryostat. The sections were attached to superfrost/plus microscope slide (Fisherbrand) and maintained at […] until time of use. All sections were examined to ensure that they were perpendicular to the plane of the epidermis, exposing cross-sections of epidiermis, dermis and sub-cutaneos tissue.
# For immunoassay tests to detect cnidaria stinging level of human skin, a polyclonal antibody specific for nematocyst toxin was prepared, as described in Lotan et al (1996).
# Briefly, the HPLC fraction containing the toxin phospholipase A2 from the jellyfish Rhopilema nomadica was isolated and injected into rabbits as described in Vaitukaitis, pp. 46–52, “Immunochemical Techniques, Part B,” in Methods in enzymology, vol. 73, ed. Larson & Vunkis (academic Press, New York, 1981). Serum was collected from the rabbits after two injections, and the presence of antibody against the jellyfish toxin was examined on immunoblots.
# The slides prepared and frozen as described above were thawed at room temperature. The slides were submersed in sea water and then attached to jellyfish or sea anemone tentacles for 10 seconds. The tentacles were detached, the slide washed with PBS, and blocked using 5% Fetal Bovine Serum, and 0.1% Triton X100 in PBS (blocking solution). All washing incubation steps were conducted on a tilting shaker at room temperature. The slides were incubated at 10 ml of block solution containing a 1:2, 500 dilution of the anti-toxin antibody for one hour. After incubation, the slide were washed five times for five minutes each wash with 100 mL of 0.1% TritonX100 in PBS (Wash solution). […]
# Twelve sections of human skin samples were tested in each experiment. […] The number of nematocysts that penetrated the skin was determined using immunohistochemical analysis.
# [5] = Water resistance of ointment on virgin wool squares in seawater (atomic absorption); assay type: physicochemical; settings: 80 RPM
# Method: To determine the water resistance of an ointment containing 50 mM LaCl3, prepared according the above-described conditions, three squares (10×10 CM) of virgin wool, keratin protein that is used as a substrate to approximate human skin, were used. Each square of wool was treated with 1-gram of ointment containing 50 mM LaCl3. After 20 minutes of drying at room temperature, the squares of wool were immersed in one liter of seawater and agitated (80 RPM) for 30 minutes, 60 minutes, or 120 minutes. The ointment was extracted separately from each square of wool with 50 ml 1% Tritox100 under boiling. The Lanthanum chloride concentration of each sample of extracted ointment was monitored with the use of atomic absorption.
smiles,measurement,setting,value
[Ca+2].[Cl-].[Cl-] [CaCl2],discharge of isolated nematocyst capsules,[1],do not discharge
"[Cl-].[Cl-].[Co+2] [CoCl2, reference compound]",effect on nematocyst discharge,[2],inactivates nematocyst discharge
[Gd+3] [Gd^+3],effect on discharge of nematocyte batteries,[3],prevents discharge
"[Cl][La]([Cl])[Cl] [LaCl3, Lanthanum Chloride]",inhibition of nematocyst penetration,[4]; 2 mM LaCl3 in ointment,44%
same,reduction in the sting,[4]; 5 mM LaCl3 in ointment,76%
same,reduction of the sting,[4]; 50 mM LaCl3 in lotion,92%
same,effect on nematocyst discharge,[2],inactivates nematocyst discharge
same,LaCl3 retained in the ointment,"[5]; ointment containing 50 mM LaCl3, 30 minutes water submersion",90%
same,Lanthanum remaining in the ointment,"[5]; ointment containing 50 mM LaCl3, 60 minutes water submersion",77%
same,LaCl3 left in the ointment,"[5]; ointment containing 50 mM LaCl3, 120 minutes water submersion",70%
